From article PMC6736568, “Discovery of Novel Anti-cryptosporidial Activities From Natural Products by in vitro High-Throughput Phenotypic Screening” (Frontiers in Microbiology, 2019)
Counter-ions that a name gives are not always drawn. Like-named read-outs stand apart in the source and are kept apart here. Blank lines part the entries; values can stand above or below the compound they belong to.

Legend:
Cryptosporidium parvum = assay: qRT-PCR assay of the growth of C. parvum in vitro in HCT-8 host cells (primary and secondary screening, EC50); format: cell-based; conditions: Cryptosporidium parvum, HCT-8; for inhibition at 3.3 µM: secondary screening at 3.3 uM, read-out: % Inhibition (3.3 uM)
[1] = primary screening at 10 uM, read-out: Inhibition (%)
[2] = primary screening at 10 uM, treated vs control

Compound: COc1cccc(-c2cc(=O)c3cc(OC)ccc3o2)c1 [6,3'-DIMETHOXYFLAVONE]
inhibition at 10 µM (Cryptosporidium parvum; [1]): 1.27% | Hs18S ΔCT (HCT-8 host cells (Hs18S); human, 41 h, 10 μM): -0.08 | cytotoxicity at 41 h, 10 µM (in vitro; human): -5.6%

Compound: CC12CCC(CC1)C(C)(C)O2 [EUCALYPTOL]
inhibition at 10 µM (Cryptosporidium parvum; [1]): 16.2% | Hs18S ΔCT (HCT-8 host cells (Hs18S); human, 41 h, 10 μM): -0.22 | cytotoxicity at 41 h, 10 µM (in vitro; human): -16.4%

Compound: CC(C)=CCC[C@@H](C)[C@@H]1CC[C@]2(C)C3=C(CC[C@@]12C)[C@@]1(C)CC[C@H](O)C(C)(C)[C@@H]1CC3 [EUPHOL]
inhibition at 10 µM (Cryptosporidium parvum; [1]): -2.84% | Hs18S ΔCT (HCT-8 host cells (Hs18S); human, 41 h, 10 μM): -0.29 | cytotoxicity at 41 h, 10 µM (in vitro; human): -22.5%

Compound: OC[C@H]1O[C@@H](OCCc2ccc(O)cc2)[C@H](O)[C@@H](O)[C@@H]1O [SALIDROSIDE]
inhibition at 10 µM (Cryptosporidium parvum; [1]): 14.8% | Hs18S ΔCT (HCT-8 host cells (Hs18S); human, 41 h, 10 μM): -0.22 | cytotoxicity at 41 h, 10 µM (in vitro; human): -16.1%

Compound: CC(=O)O[C@H]1CC[C@@]2(C)[C@@H](CC[C@@H]3[C@@H]2CC(=O)[C@]2(C)[C@@H]4[C@H](C[C@@H]32)O[C@]2(CC[C@@H](C)CO2)[C@H]4C)C1 [HECOGENIN ACETATE]
inhibition at 10 µM (Cryptosporidium parvum; [1]): 6.66% | Hs18S ΔCT (HCT-8 host cells (Hs18S); human, 41 h, 10 μM): -0.05 | cytotoxicity at 41 h, 10 µM (in vitro; human): -3.7%

Compound: O=C1C[C@@H]2OCC=C3CN4CC[C@]56c7ccccc7N1[C@H]5[C@H]2[C@H]3C[C@H]46 [STRYCHNINE]
inhibition at 10 µM (Cryptosporidium parvum): 29% | Hs18S ΔCT (HCT-8 host cells (Hs18S)): -0.30 | cytotoxicity at 10 µM (in vitro): -23.5%

Compound: C[C@@H]1CC[C@@]2(OC1)O[C@H]1C[C@H]3[C@@H]4CC[C@H]5C[C@@H](O)CC[C@]5(C)[C@H]4CC[C@]3(C)[C@H]1[C@@H]2C [TIGOGENIN]
inhibition at 10 µM (Cryptosporidium parvum; [1]): 15.4% | Hs18S ΔCT (HCT-8 host cells (Hs18S); [2]): -0.40 | cytotoxicity at 41 h, 10 µM (in vitro): -31.8%

Compound: CC12CCC3C(CC3(C)C)C(C)(CCC1=O)O2 (centres unmarked) [3,7-EPOXYCARYOPHYLLAN-6-ONE]
inhibition at 10 µM (Cryptosporidium parvum; [1]): 13.1% | Hs18S ΔCT (HCT-8 host cells (Hs18S); human, 41 h, 10 μM): 0.27 | cytotoxicity at 41 h, 10 µM (in vitro; human): 17%

Compound: C=C(C)[C@H]1COc2cc3oc(=O)ccc3cc2O1 [OBLIQUIN]
inhibition at 10 µM (Cryptosporidium parvum; [1]): 1.63% | Hs18S ΔCT (HCT-8 host cells (Hs18S); [2]): -0.33 | cytotoxicity at 10 µM (in vitro): -25.7%

Compound: Cc1c(O)c(O)cc2c1CC=C1[C@@]2(C)CC[C@@]2(C)[C@@H]3C[C@](C)(C(=O)O)CC[C@]3(C)CC[C@]12C [DIHYDROCELASTROL]
inhibition at 10 µM (Cryptosporidium parvum; [1]): 92.5% | inhibition at 3.3 µM (Cryptosporidium parvum): -66% | Hs18S ΔCT (HCT-8 host cells (Hs18S); [2]): 1.27 | cytotoxicity at 10 µM (in vitro): 58.7%

Compound: COC(=O)C(O)c1ccccc1 (centres unmarked) [MANDELIC ACID, METHYL ESTER]
inhibition at 10 µM (Cryptosporidium parvum; [1]): -2.26% | Hs18S ΔCT (HCT-8 host cells (Hs18S); human, 41 h, 10 μM): 0.31 | cytotoxicity at 41 h, 10 µM (in vitro; human): 19.1%

Compound: CCOC(=O)CCCCCCCCCCCCC1C=CCC1 (centres unmarked) [CHAULMOOGRIC ACID, ETHYL ESTER]
inhibition at 10 µM (Cryptosporidium parvum; [1]): -0.95% | Hs18S ΔCT (HCT-8 host cells (Hs18S); human, 41 h, 10 μM): -0.15 | cytotoxicity at 41 h, 10 µM (in vitro; human): -10.8%

Compound: C[C@@H]1[C@H](O)[C@@H](C)/C=C/C=C/C=C/C=C/C=C/C=C/C=C/[C@H](O[C@@H]2O[C@H](C)[C@@H](O)[C@H](N)[C@@H]2O)C[C@@H]2O[C@](O)(C[C@@H](O)C[C@@H](O)[C@H](O)CC[C@@H](O)C[C@@H](O)CC(=O)O[C@H]1C)C[C@H](O)[C@H]2C(=O)O [AMPHOTERICIN B]
inhibition at 10 µM (Cryptosporidium parvum; [1]): -4.47% | Hs18S ΔCT (HCT-8 host cells (Hs18S); human, 41 h, 10 μM): 0.11 | cytotoxicity at 41 h, 10 µM (in vitro; human): 7.1%

Compound: CC1(C)CC[C@]2(C(=O)O)CC[C@]3(C)C(=CC[C@@H]4[C@@]5(C)CC[C@H](O)[C@@](C)(CO)[C@@H]5CC[C@]43C)[C@@H]2C1 [HEDERAGENIN]
inhibition at 10 µM (Cryptosporidium parvum; [1]): 53.4% | Hs18S ΔCT (HCT-8 host cells (Hs18S); [2]): -0.11 | cytotoxicity at 10 µM (in vitro): -7.7%

Compound: CC(=O)O[C@@H]1[C@H]2CC[C@H]3[C@@](C)(O)[C@@H]4C[C@H](O)C(C)(C)[C@@]4(O)[C@H](O)C[C@@]13C[C@@]2(C)O [GR[…]]
inhibition at 10 µM (Cryptosporidium parvum; [1]): 3.95% | Hs18S ΔCT (HCT-8 host cells (Hs18S); [2]): -0.03 | cytotoxicity at 10 µM (in vitro): -2.4%

Now from value to compound, other results behind:

Hs18S ΔCT (HCT-8 host cells (Hs18S); human, 41 h, 10 μM): -0.11
Compound: CN[C@@H]1[C@@H](O)[C@@H](O[C@@H]2[C@@H](O)[C@H](O[C@H]3OC(CN)=CC[C@H]3N)[C@@H](N)C[C@H]2N)OC[C@]1(C)O [SISOMICIN SULFATE]
inhibition at 10 µM (Cryptosporidium parvum; [1]): 41.1% | cytotoxicity at 41 h, 10 µM (in vitro; human): -7.8%

Hs18S ΔCT (HCT-8 host cells (Hs18S); human, 41 h, 10 μM): -0.35
Compound: Nc1ncnc2c1ncn2[C@H]1C[C@H](O)[C@@H](CO)O1 [DEOXYADENOSINE]
inhibition at 10 µM (Cryptosporidium parvum; [1]): 44.5% | cytotoxicity at 41 h, 10 µM (in vitro; human): -27.3%

Hs18S ΔCT (HCT-8 host cells (Hs18S); human, 41 h, 10 μM): -0.16
Compound: Nc1ncnc2c1ncn2[C@@H]1O[C@H](COP(=O)(O)O)[C@@H](O)[C@H]1O [ADENOSINE PHOSPHATE]
inhibition at 10 µM (Cryptosporidium parvum; [1]): 23.5% | cytotoxicity at 41 h, 10 µM (in vitro; human): -11.8%

Hs18S ΔCT (HCT-8 host cells (Hs18S); human, 41 h, 10 μM): -0.20
Compound: COc1c(O)cccc1O [2-METHOXYRESORCINOL]
inhibition at 10 µM (Cryptosporidium parvum; [1]): 20.3% | cytotoxicity at 41 h, 10 µM (in vitro; human): -15%

Hs18S ΔCT (HCT-8 host cells (Hs18S); human, 41 h, 10 μM): 0.18
Compound: COc1cc(O)c2c(=O)c(O)c(-c3ccccc3)oc2c1 [IZALPININ]
inhibition at 10 µM (Cryptosporidium parvum; [1]): 18.4% | cytotoxicity at 41 h, 10 µM (in vitro; human): 11.5%

Hs18S ΔCT (HCT-8 host cells (Hs18S); human, 41 h, 10 μM): -0.48
Compound: COC(=O)CC1C(C)(C)C(OC(C)=O)[C@@H]2[C@@H](OC(C)=O)[C@]34O[C@@]2(O)[C@]1(C)C3CC[C@]1(C)C4=CC(=O)O[C@H]1c1ccoc1 (some centres unmarked) [XYLOCARPUS A]
inhibition at 10 µM (Cryptosporidium parvum; [1]): -11.9% | cytotoxicity at 41 h, 10 µM (in vitro; human): -39.2%

Hs18S ΔCT (HCT-8 host cells (Hs18S); human, 41 h, 10 μM): 0.51
Compound: CNc1ccccc1C(=O)N1CCc2c([nH]c3ccccc23)C1=O [RHETSININE]
inhibition at 10 µM (Cryptosporidium parvum; [1]): -31.2% | cytotoxicity at 41 h, 10 µM (in vitro; human): 29.6%

Hs18S ΔCT (HCT-8 host cells (Hs18S); human, 41 h, 10 μM): -0.33
Compound: COC(=O)C[C@H]1C2(C)CC34OC5(C)O[C@@]6([C@H](OC(C)=O)C(OC(C)=O)[C@]7(C)C(/C(=C(/O)C(C)C)C(=O)O[C@H]7c7ccoc7)[C@@]6(O5)[C@H](OC(C)=O)[C@@]3(O)C2OC(=O)C(C)C)[C@]14C (some centres unmarked) [BUSSEIN]
inhibition at 10 µM (Cryptosporidium parvum; [1]): 85.1% | inhibition at 3.3 µM (Cryptosporidium parvum): 34% | cytotoxicity at 41 h, 10 µM (in vitro; human): -25.3%
